Substitutions are numbered along the chain they refer to.
How the values were obtained:
[1] = target: T1, FAM86A (Homo sapiens, UniProt Q96G04, A97R); assay: in vitro methylation, autoradiography; assay type: biochemical; conditions: labelled compound; methyl donor; co-substrate recombinant human EEF2 (Lys525); Tris-HCl pH 8.0, 20 mM KCl, 5 mM MgCl2, 10% glycerol, 30 C overnight
T1 construct: gene EEF2KMT; full-length; E. coli BL21
T1 sequence (Q96G04 1-330 A97R): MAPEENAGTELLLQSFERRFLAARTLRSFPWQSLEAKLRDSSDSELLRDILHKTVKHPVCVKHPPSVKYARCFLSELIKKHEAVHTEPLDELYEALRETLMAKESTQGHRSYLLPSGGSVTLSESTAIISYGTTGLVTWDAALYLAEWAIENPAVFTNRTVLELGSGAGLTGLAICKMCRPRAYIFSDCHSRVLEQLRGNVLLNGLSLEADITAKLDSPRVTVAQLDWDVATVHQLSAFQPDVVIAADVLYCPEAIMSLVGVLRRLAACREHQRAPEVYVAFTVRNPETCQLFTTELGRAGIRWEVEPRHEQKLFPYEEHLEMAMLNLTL

[2] = target: T2, FAM86A (Homo sapiens, UniProt Q96G04); assay: in vitro methylation, autoradiography; assay type: biochemical; conditions: labelled compound; methyl donor; co-substrate recombinant human EEF2 (Lys525); Tris-HCl pH 8.0, 20 mM KCl, 5 mM MgCl2, 10% glycerol, 30 C overnight
T2 construct: gene EEF2KMT; full-length; E. coli BL21
T2 sequence (Q96G04 1-330): T1 sequence (Q96G04 1-330 A97R) with R97A
Procedure: in vitro methylation, autoradiography on FA[…] | incubating recombinant, purified FA[…] with recombinant, purified EEF2 in the presence of radiolabeled SAM

[3] = target: T3, FAM86A (Homo sapiens, UniProt Q96G04, I256Y/M257Y/E296Y); assay: X-ray crystal structure, […] A; conditions: co-crystallised with 1 mM SAH, ammonium citrate pH 7.0, PEG 3350, 5 mM TCEP, 12 C; SAM-binding site of MTase domain
T3 construct: gene EEF2KMT; full-length, surface-entropy-reduction triple mutant; N-terminal His6-MBP tag removed by TEV; E. coli BL21(DE3) RIL; residues 1-5 and 127-133 not traced
T3 sequence (Q96G04 1-330 I256Y/M257Y/E296Y): T1 sequence (Q96G04 1-330 A97R) with R97A, I256Y, M257Y, E296Y

**Q.** How did the “in vitro methylation, autoradiography” value [1] turn out when `C[S+](CC[C@H](N)C(=O)O)C[C@H]1O[C@@H](n2cnc3c(N)ncnc32)[C@H](O)[C@@H]1O` (stereo partly drawn) [SAM, S-adenosyl methionine] was run?
**A.** Its value is “the activity of purified FAM86A (A97R) on purified EEF2 was similar to that of wildtype”.

**Q.** And the “in vitro methylation, autoradiography” value [2]?
**A.** The value was “incubating recombinant, purified FAM86A with recombinant, purified EEF2 in the presence of radiolabeled SAM”.

**Q.** `Nc1ncnc2c1ncn2[C@@H]1O[C@H](CSCC[C@H](N)C(=O)O)[C@@H](O)[C@H]1O` [SAH, S-adenosyl homocysteine] was tested. Which “X-ray crystal structure, 3.3 A” value [3] did it give?
**A.** Its value is “structure determination of full-length FAM86A in complex with cofactor–by-product S-adenosyl homocysteine (SAH)”.
